Data from PubChem BioAssay (NCI).
“And” between values parts separate entries of the source, which are not always exact repeats. Equal values may be shown once.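 Each compound was tested at five concentrations against cells in 96-well plates for 48 hours. GI50 = concentration required for 50% inhibition of growth. At the TGI there is no net growth.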

Legend:
Assay in all cases: NCI anticancer screen, dose series, 48 h
[1] = test system: SK-MEL-5 melanoma
[2] = test system: SNB-75 CNS
[3] = test system: HT29 colon
[4] = test system: 786-0 renal
[5] = test system: A549 NSCLC
[6] = test system: MCF7 breast
[7] = test system: HL-60(TB) leukemia
[8] = test system: UACC-257 melanoma
[9] = test system: HCT-15 colon
[10] = test system: CCRF-CEM leukemia

Compound	GI50 [1]	TGI [1]	GI50 [2]	TGI [2]	GI50 [3]	TGI [3]	GI50 [4]	TGI [4]	GI50 [5]	TGI [5]	GI50 [6]	TGI [6]	GI50 [7]	TGI [7]	GI50 [8]	TGI [8]	GI50 [9]	TGI [9]	GI50 [10]	TGI [10]
O=S(=O)(O)ONC1=NCCN1	> 100 µM	> 100 µM	> 100 µM	> 100 µM	58.1 µM	> 100 µM	90.6 µM	> 100 µM	> 100 µM	> 100 µM	16.1 µM	> 100 µM	> 100 µM	> 100 µM	> 100 µM	> 100 µM	> 100 µM	> 100 µM	43.4 µM	> 100 µM
NS(=O)(=O)c1ccc(NC(=O)Nc2ccccc2F)cc1	–	> 100 µM	–	> 100 µM	–	> 100 µM	–	> 100 µM	–	> 100 µM	–	> 100 µM	–	> 100 µM	–	> 100 µM	–	> 100 µM	–	–
CCc1nc(-n2c(-c3ccccc3)nc3ccccc3c2=O)nc(N)c1-c1ccc(Cl)cc1	5.6 µM	33 µM	48.2 µM	> 100 µM	6.62 µM	> 100 µM	5.64 µM	> 100 µM	4.98 µM	> 100 µM	80.7 µM	> 100 µM	–	–	40.3 µM	> 100 µM	6.43 µM	> 100 µM	9.94 µM	> 100 µM
Oc1ccc(Cl)cc1-c1cc(-c2ccc(F)cc2)n[nH]1	1.93 µM	5.55 µM	2.07 µM	9.19 µM	3.99 µM	22.2 µM	1.82 µM	3.41 µM	2.11 µM	7.2 µM	0.395 µM	14.1 µM	3.6 µM	21.5 µM	2.96 µM	21 µM	0.416 µM	22.5 µM	0.452 µM	4.12 µM
N#Cc1c2c(c(-c3cccs3)n(C3OC(CO)C(O)C(O)C3O)c1=S)CCc1ccccc1-2 (stereo not drawn)	6.47 µM and 28.4 µM	> 100 µM	3.49 µM and 1.55 µM	> 29.3 µM and 12.7 µM	6.27 µM and > 20.9 µM	> 100 µM	12.3 µM and 25.2 µM	> 100 µM	20.9 µM and > 85.1 µM	> 100 µM	–	> 100 µM	–	> 84.7 µM	–	> 100 µM	–	> 100 µM	–	> 100 µM
CCCCCc1c(C)[nH]c(/C=C2\N=C(c3ccc[nH]3)C=C2OCc2ccccc2)c1C	0.0358 µM and 0.0186 µM	0.138 µM and 0.0471 µM	0.0803 µM and 0.0214 µM	0.577 µM and 0.0825 µM	0.0314 µM and 0.0196 µM	1.22 µM	0.052 µM and 0.0348 µM	0.378 µM and 0.226 µM	0.0328 µM and 0.0283 µM	0.381 µM and 0.0957 µM	0.0395 µM and 0.0361 µM	0.859 µM and 1.06 µM	0.0623 µM	0.425 µM	0.191 µM and 0.0767 µM	1.53 µM and 0.668 µM	0.0368 µM and 0.0246 µM	0.279 µM and 0.15 µM	0.0261 µM and 0.0162 µM	–
C[N+](C)([O-])CCCNc1ccnc2cccc([N+](=O)[O-])c12	–	33.4 µM	–	> 100 µM	–	> 100 µM	–	> 100 µM	–	> 100 µM	–	> 100 µM	–	54.1 µM	–	> 100 µM	–	61.6 µM	–	> 100 µM
COc1cc([C@@H]2c3cc4c(cc3C[C@H]3COC(=O)[C@@H]32)OCO4)cc2c1OCO2	–	< 0.01 µM	–	> 100 µM	–	< 0.01 µM	–	> 59.8 µM	–	> 100 µM	–	> 100 µM	–	–	–	–	–	> 100 µM	–	97.7 µM
CC(=O)N1CCN(CCOc2ccc(C3CCN(C4=Nn5c(nnc5C(F)(F)F)CC4)CC3)cc2)CC1	6.58 µM	30.8 µM	3.12 µM	> 100 µM	9.08 µM	> 100 µM	25.1 µM	> 100 µM	41.4 µM	> 100 µM	4.3 µM	> 100 µM	4.41 µM	99.4 µM	26 µM	> 100 µM	14 µM	> 100 µM	20.4 µM	> 100 µM
CCOC(=O)Cc1csc(NC(=O)COC(=O)c2ccc(OC)cc2)n1	> 100 µM	> 100 µM	28.3 µM	> 56.6 µM	30.8 µM	> 80.1 µM	35.7 µM	> 57.6 µM	> 100 µM	> 100 µM	64.2 µM	> 100 µM	0.407 µM	2.63 µM	> 100 µM	> 100 µM	> 100 µM	> 100 µM	11.1 µM	31.5 µM
O=C(O)C(=O)CBr	> 100 µM and 65.8 µM	> 100 µM	> 100 µM and 25.2 µM	> 100 µM and 60.3 µM	> 47.5 µM and 25.3 µM	> 76.8 µM and 62.5 µM	16.9 µM and 21.7 µM	31.3 µM and 36.5 µM	> 100 µM and 25 µM	> 100 µM and 52.2 µM	> 61.4 µM and 29.3 µM	> 100 µM and 94.7 µM	12.1 µM and 18.9 µM	46.1 µM and 45.1 µM	> 78.3 µM and 18.4 µM	> 100 µM and 33.6 µM	> 35.2 µM and 17.3 µM	> 53.1 µM and 33.1 µM	14.4 µM and 7.12 µM	> 52.2 µM and 38.6 µM
O=C(CCl)Nc1cc(O)c2c(c1)C(=O)c1cccc(O)c1C2=O	0.549 µM	1.61 µM	1.21 µM	3.2 µM	1.99 µM	3.89 µM	1.99 µM	4.16 µM	7.44 µM	48.5 µM	0.725 µM	2.61 µM	2.44 µM	6.08 µM	2.52 µM	6.41 µM	0.62 µM	2.01 µM	0.314 µM	3.24 µM
O=C(c1ccccc1)C1C(C(=O)c2ccccc2)C(c2ccccc2)N(c2ccccc2)C1c1ccccc1 (stereo not drawn)	–	> 100 µM	–	–	–	–	–	> 100 µM	–	> 100 µM	–	> 100 µM	–	> 100 µM	–	> 100 µM	–	> 100 µM	–	> 100 µM
O=C(Nc1ccc(I)cc1F)c1cc(I)ccc1O	0.285 µM	0.807 µM	0.752 µM	6.75 µM	3.71 µM	> 100 µM	1.03 µM	9.51 µM	1.15 µM	> 100 µM	1.55 µM	9.28 µM	0.517 µM	1.66 µM	0.73 µM	2.6 µM	0.452 µM	19.7 µM	0.943 µM	> 37.6 µM
c1ccc2nc(OCCN3CC3)ccc2c1	12.9 µM	26.8 µM	16.9 µM	35.2 µM	–	–	14.3 µM	37.3 µM	14.4 µM	30.7 µM	3.4 µM	11.4 µM	6.59 µM	34.9 µM	16.5 µM	32.8 µM	13.3 µM	46.1 µM	4.4 µM	60.5 µM
COc1cccc(C2=C(c3cn(C)c4cccc(OC)c34)C(=O)NC2=O)c1	7.36 µM	> 25 µM	4.94 µM	24.5 µM	5.34 µM	> 25 µM	17.9 µM	> 25 µM	11.2 µM	> 25 µM	6.99 µM	> 25 µM	9.75 µM	> 25 µM	> 15.9 µM	> 25 µM	3.41 µM	> 25 µM	10.4 µM	> 25 µM
O=C(Nc1cc(-c2cccnc2)nc(NCCCN2CCOCC2)n1)c1cc(Br)cc(C(F)(F)F)c1	1.64 µM	3.02 µM	1.52 µM	3.59 µM	2.12 µM	4.95 µM	1.55 µM	3.17 µM	10.1 µM	22.2 µM	2.17 µM	9.22 µM	2.15 µM	5.86 µM	2.1 µM	3.78 µM	1.92 µM	5.28 µM	3.54 µM	12.9 µM
COC(=O)[C@]12CC[C@@H](C)[C@H](C)[C@@H]1C1=CC[C@@H]3[C@@]4(C)CC(=O)[C@H](OC(=O)c5ccco5)[C@@]5(C)COC(=C45)C[C@@]3(C)[C@]1(C)CC2	0.414 µM	2.54 µM	6.3 µM	> 100 µM	0.523 µM	> 100 µM	2.24 µM	> 100 µM	6.31 µM	> 100 µM	0.741 µM	> 100 µM	0.46 µM	> 100 µM	0.352 µM	2.93 µM	0.54 µM	> 100 µM	0.767 µM	> 100 µM
CCOC(=S)SCN1C(=O)c2ccccc2S1(=O)=O	11.4 µM	24.4 µM	4.68 µM	29.6 µM	14 µM	45.9 µM	20.9 µM	47.9 µM	23.9 µM	58.3 µM	44.1 µM	> 100 µM	–	–	18.5 µM	55.2 µM	19.2 µM	36.1 µM	16.3 µM	39.4 µM
COc1cc(/C=N\O)nc(-c2ccccn2)c1	–	–	–	> 51.6 µM	–	> 100 µM	–	> 100 µM	–	> 100 µM	–	> 100 µM	–	> 35.5 µM	–	> 100 µM	–	> 100 µM	–	> 100 µM
Cc1nnc(-c2ccc(-c3nc4ccccc4o3)cc2)o1	21 µM	65.3 µM	–	–	–	–	> 100 µM	> 100 µM	26.1 µM	> 100 µM	26.7 µM	> 100 µM	56.8 µM	> 100 µM	34.7 µM	90.7 µM	70.8 µM	> 100 µM	–	–
Nc1c(C(=O)Nc2cccc(Br)c2)sc2nc3c(cc12)C(O)CCC3 (stereo not drawn)	0.455 µM	> 45.4 µM	0.359 µM	17.5 µM	0.319 µM	11 µM	0.645 µM	36.1 µM	0.494 µM	22 µM	0.289 µM	> 64.2 µM	0.24 µM	0.757 µM	–	–	0.35 µM	> 100 µM	0.357 µM	> 74.9 µM
COc1ccc(/C=N/N=C(\[O-])c2ccncc2)cc1F.COc1ccc(/C=N\N=C(/[O-])c2ccncc2)cc1F.[Cu+2]	26 µM	80.4 µM	14.6 µM	28.2 µM	24.1 µM	69 µM	20.2 µM	44.3 µM	27.3 µM	> 100 µM	17.9 µM	35 µM	–	–	17.9 µM	40.2 µM	52.6 µM	> 100 µM	22 µM	68.9 µM
O=C(CC(=O)c1ccccc1)c1ccccc1	11.5 µM	32.4 µM	22.9 µM	> 100 µM	30.1 µM	> 100 µM	11 µM	43.6 µM	26.9 µM	69.5 µM	10.1 µM	82.3 µM	12.3 µM	> 100 µM	23.6 µM	84.5 µM	2.06 µM	6.82 µM	–	–
Cc1cc(O)c(C(c2ccncc2)c2c(O)cc(C)[nH]c2=O)c(=O)[nH]1	–	> 100 µM	–	–	–	> 100 µM	–	> 100 µM	–	> 100 µM	–	> 100 µM	–	> 100 µM	–	> 100 µM	–	> 100 µM	–	> 100 µM
COc1c(N2CCN(Cn3c(O)c(N=NC(=O)c4ccncc4)c4cc(F)ccc43)C(C)C2)c(F)cc2c(=O)c(C(=O)O)cn(C3CC3)c12 (stereo not drawn)	16.6 µM	> 50 µM	> 50 µM	> 50 µM	> 50 µM	> 50 µM	22.3 µM	> 50 µM	> 50 µM	> 50 µM	12.4 µM	> 50 µM	> 50 µM	> 50 µM	> 50 µM	> 50 µM	17 µM	> 50 µM	–	–
COc1cc(-c2nn(-c3ccc(NC(=O)c4cc(Cl)cc(Cl)c4)cc3)cc2-c2ccncc2)ccc1Cl	12 µM	> 100 µM	4.14 µM	> 100 µM	3.53 µM	> 100 µM	1.97 µM	7.66 µM	> 100 µM	> 100 µM	> 100 µM	> 100 µM	5.82 µM	> 100 µM	> 100 µM	> 100 µM	–	–	5.77 µM	> 100 µM
Cc1cc(S(=O)(=O)Nc2nc3cc(Cl)ccc3o2)c(SCc2ccccc2)cc1Cl	17.1 µM	32 µM	26.1 µM	62.2 µM	39.9 µM	> 100 µM	20.1 µM	38 µM	23.8 µM	59.9 µM	24.9 µM	60.5 µM	–	–	18.4 µM	38.4 µM	8.28 µM	25 µM	3.53 µM	16.2 µM
